Test results: patent US20240366728A1, “Treatment of Diabetes Mellitus” (Carmot Therapeutics Inc., priority 2023, published 2024)
Several values for one entry are separate records, joined by “and”; a condition that tells them apart may be missing. Identical values can stand only once. Entries after “also recorded” stand apart in the source; their conditions may differ.

What was measured:
[1] = test system: GLP-1R+/+ and GLP-1R-/- mice; experiment: intraperitoneal glucose tolerance test in GLP-1R+/+ and GLP-1R-/- mice
[2] = test system: GIPR+/+ and GIPR-/- mice; experiment: intraperitoneal glucose tolerance test in GIPR+/+ and GIPR-/- mice; type: in vivo, mouse
[3] = test system: lean C57BL/6J mice; experiment: intraperitoneal glucose tolerance test in lean mice
[4] = test system: DIO C57BL/6J mice; experiment: chronic daily SC dosing in DIO mice (body weight, food, glucose, insulin, tissue weights); type: in vivo, mouse
Method: Body weight and food consumption were measured daily (FIGS. 8 and 9). On the last day of the study mice were fasted for 5 hours. At the end of the fasting period, glucose was measured (FIG. 6) and plasma was collected for insulin analysis. Plasma insulin was measured using an MSD kit. Fasting glucose and insulin were used to calculate the log (HOMA-IR) (FIG. 7).
Body weight was measured daily (FIG. 11). […] On the last day of the study, glucose was measured, and plasma was collected for insulin analysis. Plasma insulin was measured using an MSD kit. Glucose and insulin were used to calculate log (HOMA-IR) (FIG. 10).
DIO mice were acclimated to daily weighing and handling for approximately 1 week until their weight had stabilized. Mice were injected subcutaneously once daily with the indicated dose of peptide, or vehicle, based on current body weight. Injections were performed six hours before the dark cycle started to approximate reaching Tmax when the dark cycle started. Where indicated, 24-hour food consumption studies were performed as described above. Body weight as a percentage of initial weight was calculated daily by dividing the daily body weight by the body weight taken before the first dose of peptide, multiplied by 100%. Blood glucose was determined at study termination, and blood was collected to quantify plasma insulin concentrations. Mice were sedated by isoflurane and euthanized by decapitation. […] Plasma was stored at −80° C. until analysis. Subcutaneous and inguinal fat and the liver were removed and weighed.
DIO and ob/ob mice were acclimated to daily weighing and handling for approximately one week until weight had stabilized. […] Injections were performed six hours before the start of the dark cycle to approximate reaching Tmax when the dark cycle started. […] In both the DIO and ob/ob weight loss studies, body weight as a percentage of initial weight was calculated daily by dividing the daily body weight by the body weight taken before the first dose of peptide, multiplied by 100%. Blood glucose was determined at study termination, and blood was collected to quantify plasma insulin concentrations. Mice were sedated by isoflurane and euthanized by decapitation. […] Subcutaneous and inguinal fat and the liver were removed and weighed.

[5] = toxicology studies; conditions: highest dose tested
[6] = in vivo
[7] = test system: lean participants and participants with overweight/obesity; experiment: Phase 1 first-in-human SAD/MAD study: safety and tolerability; type: in vivo; conditions: for safety and tolerability (in words): no up-titration
Excerpt: This was a randomized, double-blind, placebo-controlled, dose escalation first-in-human (FIH) conducted from December 2018 to January 2020 at a study center in Victoria, Australia in accordance with principles of the Declaration of Helsinki (Ethical Principles for Medical Research Involving Human Subjects), and the NHMRC National Statement on Ethical Conduct in Human Research 2007 (updated 2018). (Registered on the Australian New Zealand Clinical Trials Registry [ANZCTR] under the identifier: ACTRN12618001988246).
Daily doses were given on Day 2 to Day 14. Cohort M1 was dosed with the highest dose level, determined based on the safety and PK data from the preceding Part 1 (SAD), and doses were decreased sequentially for Cohorts M2 and M3 (FIG. 46B).
Following study drug administration, Part 1 (SAD) participants underwent safety and other assessments on Day 3 and Day 8 (±1 day, outpatient) and were followed for at least 30 days after the last administered dose of study drug. Part 2 (MAD) participants underwent safety and other assessments and discharged in the absence of clinically significant safety signals, following completion of all Day 16 assessments. All participants were followed for at least 30 days after the last administered dose of study drug. Participants were follow-up for safety and other assessments on Day 21 (±2 days, outpatient) and Day 44 (±3 days, teleconference).
The primary endpoints were the incidence, nature and severity of AEs, safety laboratory analytes, vital signs, electrocardiograms (ECGs), and incidence of events of special interest (AESI).
Adverse events were coded using the Medical Dictionary for Regulatory Activities (MedDRAR Version 21.1). The number of participants experiencing treatment-emergent AEs (TEAEs) and number of individual TEAEs are summarized by treatment, SOC, and PT. TEAEs are also summarized by severity and by relationship to study drug. AESIs are listed and summarized by treatment group. Listings of AEs leading to discontinuation of the study, SAEs and deaths, are provided as applicable.

## CCCCCCCCCCCCCCCC(=O)N[C@@H](CCC(=O)NCCCC[C@H](NC(=O)[C@H](CO)NC(=O)[C@@H]1CCCN1C(=O)[C@@H]1CCCN1C(=O)[C@@H]1CCCN1C(=O)[C@H](C)NC(=O)CNC(=O)[C@H](CO)NC(=O)[C@H](CO)NC(=O)[C@@H]1CCCN1C(=O)CNC(=O)CNC(=O)[C@H](C)NC(=O)[C@H](CC(C)C)NC(=O)[C@H](CC(C)C)NC(=O)[C@H](Cc1c[nH]c2ccccc12)NC(=O)[C@H](CC(N)=O)NC(=O)[C@@H](NC(=O)[C@H](Cc1ccccc1)NC(=O)[C@H](CCC(=O)O)NC(=O)C(C)(C)NC(=O)[C@H](C)NC(=O)[C@H](C)NC(=O)[C@H](CCC(N)=O)NC(=O)[C@H](CCCCN)NC(=O)[C@H](CC(=O)O)NC(=O)[C@H](CC(C)C)NC(=O)[C@H](Cc1ccc(O)cc1)NC(=O)[C@@H](NC(=O)[C@H](CO)NC(=O)[C@H](Cc1ccc(O)cc1)NC(=O)[C@H](CC(=O)O)NC(=O)[C@H](CO)NC(=O)[C@@H](NC(=O)[C@H](Cc1ccccc1)NC(=O)[C@@H](NC(=O)CNC(=O)[C@H](CCC(=O)O)NC(=O)CSCC(=O)NCCN1C(=O)CSC1=O)[C@@H](C)O)[C@@H](C)O)[C@@H](C)CC)C(C)C)C(N)=O)C(=O)O [CT-859]
[1]; GLP-1R knockout mice, 20 nmol/kg
  GLUC AUC during IPGTT (in words): no effect on GLUC AUC
[1]; GLP-1R+/+ mice, 200 nmol/kg
  glucose levels lowered: 75%
[1]; GLP-1R+/+ mice, 20 and 200 nmol/kg
  glucose lowering (in words): lowered the post-prandial glucose levels equally and significantly compared to vehicle
[1]; GLP-1R-/- mice, 20 nmol/kg
  glucose lowering (in words): ineffective at lowering glucose levels
[1]; GLP-1R-/- mice, 200 nmol/kg
  glucose levels lowered compared to vehicle: 46%
[2]; 20 nmol/kg, 4 h after dosing
  reduction in GLUC AUC in GTT: 62%
[2]; 20 and 200 nmol/kg
  glucose lowering (in words): efficacious at lowering glucose levels
[2]; single 20 nmol/kg, ipGTT at 4, 24, 48 h
  duration of glucose lowering (in words): maintained its activity at 24 and 48 hours; also recorded: maintained significant reduction after 24 h and 48 h
[3]
  in vivo potency vs liraglutide (in words): more potent than liraglutide in vivo
[3]; lean C57BL/6J and DIO mice, single 20 nmol/kg
  duration of glucose lowering (in words): remained efficacious up to 48 hours post-administration
[3]; lean C57BL/6J mice, 4 h after SC dose
  ED50 for improving post-prandial glucose in ipGTT: 0.46 nmol/kg
[3]; lean mice, 20 nmol/kg, 4 h after administration
  acute effect on GLUC AUC (in words): acute reduction of glucose (GLUC) AUC
[3]; lean mice, 20 nmol/kg, 48 hours
  reduction in GLUC AUC vs. vehicle: 45%
[4]
  adipose tissue weight vs liraglutide (in words): decreases adipose tissue weight more than liraglutide
[4]; 20 and 200 nmol/kg
  body weight vs liraglutide (in words): decreases body weight more than liraglutide at non-GIPR and GIPR engaging doses
[4]; DIO mice, 20 nmol/kg, 19 days
  body weight decreased compared to liraglutide, end of study: 8%
  body weight decreased compared to vehicle, end of study: 20%
  fasting glucose (in words): lowered fasting glucose more than liraglutide
  inguinal adipose weight lower than vehicle: 39%
[4]; DIO mice, 20 nmol/kg, 20 days
  cumulative food intake vs liraglutide (in words): without significant difference in cumulative food intake
  fasting GLUC: 146.5 mg/dL
  weight loss (WL): −16.5%
[4]; DIO mice, 20 nmol/kg, 20 days, fasted
  insulin resistance log (HOMA-IR): 0.74
[4]; DIO mice, 200 nmol/kg, 19 days
  adipose weight (in words): decreased inguinal and epididymal adipose weight more than liraglutide
  body weight decreased compared to liraglutide, end of study: 14%
  body weight decreased compared to vehicle, end of study: 33% and ~35%
  fed glucose levels (in words): decreased fed glucose levels more than the vehicle
[4]; DIO mice, 200 nmol/kg, 20 days
  nonfasted log (HOMA-IR): 1.17
  weight loss (WL): −30.1%
[4]; DIO mice, 200 nmol/kg, after 7 days of dosing
  food consumption lowered compared to liraglutide: 39%
[4]; DIO mice, 200 nmol/kg, day 7
  food intake: 1.2 g
[4]; DIO mice, 200 nmol/kg, day 14
  food intake: 1.7 g
[4]; DIO mice, GIPR-engaging dose
  additional weight loss over liraglutide: 10%

## CCCCCCCCCCCCCCCC(=O)N[C@@H](CCC(=O)NCCCC[C@H](NC(=O)[C@H](CO)NC(=O)[C@@H]1CCCN1C(=O)[C@@H]1CCCN1C(=O)[C@@H]1CCCN1C(=O)[C@H](C)NC(=O)CNC(=O)[C@H](CO)NC(=O)[C@H](CO)NC(=O)[C@@H]1CCCN1C(=O)CNC(=O)CNC(=O)[C@H](C)NC(=O)[C@H](CC(C)C)NC(=O)[C@H](CC(C)C)NC(=O)[C@H](Cc1c[nH]c2ccccc12)NC(=O)[C@H](CC(N)=O)NC(=O)[C@@H](NC(=O)[C@H](Cc1ccccc1)NC(=O)[C@H](CCC(=O)O)NC(=O)C(C)(C)NC(=O)[C@H](C)NC(=O)[C@H](C)NC(=O)[C@H](CCC(N)=O)NC(=O)[C@H](CCCCN)NC(=O)[C@H](CC(=O)O)NC(=O)[C@H](CC(C)C)NC(=O)[C@H](Cc1ccc(O)cc1)NC(=O)[C@@H](NC(=O)[C@H](CO)NC(=O)[C@H](Cc1ccc(O)cc1)NC(=O)[C@H](CC(=O)O)NC(=O)[C@H](CO)NC(=O)[C@@H](NC(=O)[C@H](Cc1ccccc1)NC(=O)[C@@H](NC(=O)CNC(=O)[C@H](CCC(=O)O)NC(=O)CSCC(=O)NCCN1CCCCC1=O)[C@@H](C)O)[C@@H](C)O)[C@@H](C)CC)C(C)C)C(N)=O)C(=O)O [CT-868]
[5]
  tolerability in toxicology studies (in words): well-tolerated at the highest dose tested
[6]
  highest tested dose exceeds pharmacologically active dose by: 100 fold
  vomiting (in words): no instances of vomiting
[7]; MAD 0.75 mg
  participants reporting only nausea: 2/6
[7]; MAD 1.5 mg
  participants with abdominal pain: 1/6
  participants with constipation: 4/6
  participants with diarrhea: 1/6
  participants with gastrointestinal symptoms: 4/6
  participants with nausea: 2/6
  participants with vomiting: 2/6
[7]; MAD 5.0 mg
  mild to moderate gastrointestinal symptoms (in words): reported by all six participants
[7]; MAD 5.0 mg, mild nausea and vomiting
  drug withdrawal due to drug-related TEAEs (in words): One participant
[7]; SAD
  maximum tolerated single dose: 7.5 mg
[7]; SAD 7.5 mg, two events of nausea and one of diarrhea
  participants with drug-related TEAEs: 50%
[7]; SAD 11.0 mg, twelve events, all drug-related
  participants with gastrointestinal TEAEs: 100%
[7]; SAD and MAD phases
  SAEs and drug-induced hypoglycemia (in words): no serious adverse events (SAEs) or drug-induced hypoglycemia events
[7]; single doses up to 7.5 mg, up to 1.5 mg/day for 14 days
  safety and tolerability (in words): generally safe and well tolerated
[7]; up to 11 mg single dose, up to 5 mg/day for 14 days
  safety and tolerability (in words): safe and well tolerated
